Results from patent US20220257741A1, “COMBINATION THERAPY FOR CANCER” (IO Biotech ApS, priority 2016, published 2022).

Columns and labels:
[1] = tested on: TC-1 tumour; assay: TC-1 tumour model, IDO-Pep1 with 1-MT (Example 9); assay type: in vivo, C57BL/6 mice; conditions: 1-MT 2 mg/ml in drinking water; IDO-Pep1 100 μg/mouse s.c.
[2] = tested on: THP-1 cells; assay: 51Cr-release assay, PBMC killing of THP-1 (Example 5); assay type: cell-based; conditions: peptide 0.1 μM
Experimental: (§1) Buffycoats were thawed (day 0), washed twice, resuspended in medium, counted and plated into wells as set out in Table Z5. THP-1 cells were irradiated with 30 GY and washed twice in medium. THP-1 cells were counted and added to PBMC containing wells as set out in Table Z5 (total volume 2 ml). Plates were placed in an incubator at 37 degrees. On day 7, 1 ml supernatant/well was removed. Fresh irradiated THP-1 cells were prepared and counted as above and 1 ml added to the wells as shown in Table Z5 Cells were harvested and analyzed for cytotoxic activity on day 23. A standard ^51Cr-release assay was used to measure the cytotoxic potential of the peptide treated PBMCs. ^51Cr labeled THP-1 cells were used as target cells and peptide treated PBMCs as effector cells. Triton-X treated wells was used as maximum measurable lysis and medium alone as minimum lysis.
% specific lysis=((CPMsample−cpmminimum)/(cpmmaximum−cpmminimum))×100%

[3] = tested on: CMV-specific CD8 T cells; assay: Boost effect on CMV peptide-induced stimulation of T cells (tetramer staining, Example 2); assay type: cell-based; conditions: peptide added to CMV stimulated cell cultures, day 15
Experimental: Day 1: • Buffy coat samples were thawed, washed twice, resuspended in medium. Cells were counted. • Cells were then added to the wells of cell culture plates at 5×10^6/0.5 ml in X-VIVO+5% HS • Wells were stimulated with CMV peptide for 2 hours at room temperature. The CMV peptide used was HCMV pp65 495-504 ([…]). • After 2 hours IDO5, IO102 or an irrelevant HIV peptide used as control were added according to Table X and plates incubated for additional 2 hours at room temperature. • Added 1500 microL X-VIVO/5% HS to each well and placed plates in an incubator at 37° C.
Day 2 and 9: • IL2 was added ([…]
Day 8: • Wells were restimulated with IDO5, IO102 or HIV peptides, added according to table X before incubation for 2 hours at room temperature. • After restimulation the contents of each well were split in two and 1.5 ml X-VIVO+5% HS/well was added. • Plates were placed in an incubator at 37° C.
Day 15: • Cells were harvested and analysed by flow cytometry. • The percentage of CMV-specific CD8 T cells in each well was identified by using a CD8 monoclonal antibody (mAb) as well as the tetramer complexes HLA-A2/CMV pp65 495-504. • As control, cells were in addition stained with the tetramer complex HLA-A2/HIV-1 po1476-484 and CD8 mAb (data not shown).

[4] = tested on: THP-1 cells; assay: 51Cr-release assay, PBMC killing of THP-1 (Example 4); assay type: cell-based; conditions: peptide 0.1 μM, day 17, range of E/T ratios
Experimental: as §1, with “Z4.” for “Z5.”, “Z4” for “Z5”, “days 7 and 14,” for “day 7,”, “removed.” for “removed. Fresh irradiated THP-1 cells were prepared and counted as above and 1 ml added to the wells as shown in Table Z5”, “17.” for “23.”
% Specific lysis=((cpmsample−cpmminimum)/(cpmmaximum−cpmminimum))×100%

[5] = tested on: IDO-specific T cell cultures; assay: Intracellular cytokine staining of IO102 stimulated T-cell cultures; assay type: cell-based, human; conditions: after four weeks of in vitro IO102 stimulation, patients #02, #05, #07
Experimental: PBMCs were stimulated with IO102 peptide in X-vivo 15 with 5% human AB serum and 120 U/ml IL2 (Novartis, Denmark) in 24 well plates (Nunc, Fischer Scientific). Initially, 20 μM peptide was used, and the cultures were re-stimulated every 7 days with a log10 decreased concentration of peptide for every week. Cell-cultures were supplemented with new IL2 every 7-10 days. Cells were kept at a concentration of 3-4×10^6/well.
For enrichment and expansion of the IDO-specific T cells, cultured cells were restimulated, after four weeks of culture, with 20 μM peptide and enriched with the TNF-α Secretion Assay (Miltenyi Biotec) according to the manufacturer's instructions. Cells were peptide stimulated 2.5 hours before staining with the primary antibody. Enriched cells were expanded in a modified rapid expansion protocol (see below).
T cells enriched for IDO-reactivity were expanded, and approximately 1-2×10^5 cells were used initially. […] Cultures were regularly assessed with regard to cell-numbers and colour of the media, and transferred to T80 or T175 flasks in addition to adding new media if appropriate. Cells were harvested after total 14 days of culture and either analyzed directly or cryopreserved in […] AB serum and 10% dimethyl sulphoxide. […]

[6] = tested on: PBMC; assay: Direct IFN-γ ELISpot of patient PBMC stimulated with IO102 peptide; assay type: cell-based, human; conditions: patient PBMC at baseline, 5 μM peptide
[7] = tested on: CT26 tumours; assay: CT26 tumour model, prophylactic vaccination (Example 10); assay type: in vivo, BALB/c mice; conditions: 100 μg peptide + 30 μg CpG in Montanide, 7 days prior to tumour challenge
Experimental: BALB/c mice were prophylactically vaccinated with a mouse IDO peptide IDO-EP2 ([…]; SEQ ID NO: 34) and challenged with CT26 tumours 7 days later. The efficacy of the peptide vaccine was assessed by tumour burden. The mouse IDO peptide sequence (IDO-Pep1) was selected to provide a murine analog for the human IDO peptides tested in the earlier Examples, because the sequence of murine IDOL differs to that of human IDO1.
6-10 week-old BALB/c mice were immunized by subcutaneous injection at the base of the tail of 100 μg peptide IDO-EP2+30 μg CpG in 100 μL, Montanide adjuvant [Montanide ISA 51 VG (Seppic)] prepared as a 1:1 emulsification. Immunizations were carried out 7 days prior to tumour challenge. For CT26 tumour cell engraftment, each mouse received two subcutaneous injections (one on each flank) of 1×10^5 CT26 in 100 μL serum free DMEM. Caliper measurements of tumour length and width were recorded every 3-4 days beginning at day 6. Tumour volume was calculated using the formula 0.52(L×W^2). Mice were euthanized when the combined tumour volume reached the defined endpoint of approximately 2,000 mm^3.

In the case of `Cn1cc(C[C@H](N)C(=O)O)c2ccccc21` [1-MT, 1-methyltryptophan], the “Therapeutic efficacy (survival)” value [1] is reported as “modest therapeutic efficacy”.

With “DTLLKALLEIASCLEKALQVF (listed as Homo sapiens) [IO102, 21 amino acid peptide, residues 194-214 of indoleamine 2,3-dioxygenase]” the “Allogenic killing of THP-1 cells compared to control peptide IDO scrambled” value ([2]; day 23, E/T ratios 2:1-60:1) was “enhanced the allogenic killing of the THP-1 cells”, the “Lysis of THP-1 cells compared to IDO5 peptide” value ([2]; day 23, low E/T ratios) was “more efficient lysis of THP-1 cells” and the “Fraction of CMV-specific T cells” value [3] was “larger fraction of CMV-specific T cells compared to adding IDO5/IO101”. For the same compound, the “Allogenic killing (lysis) of THP-1 cells by PBMCs” value [4] was “enhanced the allogenic killing of the THP-1 cells”, the “Cytokine-positive T cells upon stimulation with IO102” value [5] was “enrichment of cytokine-positive T cells was demonstrated, primarily CD4+” and the “Pre-treatment IFN-γ ELISpot responses towards IO102” value [6] was “none of the patients had detectable pre-treatment responses”.

For “LPTLSTDGL (listed as Homo sapiens) [IDO-EP2]”, the “Anti-tumour effect (tumour volume)” value [7] was “anti-tumour protective effect”.
